Values after ≈ are worked out from the molar mass of the structure shown.
Legend:
Ferritin heavy chain = test: Induction of ferritin heavy chain mRNA (qPCR); format: cell-based, human; settings: MDA-MB-435 cells, 16 hours
Protocol: (§1) FIG. 24. Induction of Ferritin Heavy Chain. MDA-MB-435 human melanoma cells were treated with vehicle (DMSO) or the indicated compounds and concentrations for 16 hours. Ferritin heavy chain mRNA levels were quantified using qPCR and were normalized relative to a DMSO-treated sample run in parallel. Values are averages of duplicate wells.
(§2) Nrf2 target gene induction. MDA-MB-435 human melanoma cells were treated with vehicle (DMSO) or the indicated compounds and concentrations for 16 hours. HO-1, thioredoxin reductase-1 (TrxR1), γ-glutamylcysteine synthetase (γ-GCS), and ferritin heavy chain mRNA levels were quantified using qPCR and were normalized relative to a DMSO-treated sample run in parallel. Values are averages of duplicate wells. Primer sequences are as follows.

[1] = tested on: thioredoxin reductase-1 (TrxR1); test: Nrf2 target gene induction, TrxR1 mRNA (qPCR); format: cell-based, human; settings: MDA-MB-435 cells, 16 hours
Protocol: as §1, with “21.” for “24.”, “HO-1, TrxR1 and γ-GCS.” for “Ferritin Heavy Chain.”, “HO-1, thioredoxin reductase-1 (TrxR1), and γ-glutamylcysteine synthetase (γ-GCS)” for “Ferritin heavy chain”
as §1, with “22.” for “24.”, “TrxR1.” for “Ferritin Heavy Chain.”, “Thioredoxin reductase-1 (TrxR1)” for “Ferritin heavy chain”, “wells. Compounds 401, 402-19 and 402-53 are comparison compounds (see Example 1).” for “wells.”
as §2

[2] = tested on: IFNγ-induced NO production in RAW264.7 macrophages; test: Suppression of IFNγ-induced NO production (Griess reagent); format: cell-based, mouse; settings: Mus musculus; RAW264.7, 20 ng/ml IFNγ 24 h, 2 h pre-treatment
Method in brief: (§3)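 Cells pre-treated with DMSO or compound at various nM concentrations for 2 h, then stimulated with 20 ng/ml recombinant mouse IFNγ for 24 h. Nitrite in medium measured by Griess reagent; viability read by WST-1.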

[3] = Aqueous solubility determination (Multiscreen solubility filter plate, UV/vis); format: physicochemical; settings: universal aqueous buffer, pH 7.4, aqueous buffer, kinetic from dmso stock, universal aqueous buffer pH 7.4, 90 min, room temperature
Protocol: Aqueous Solubility Determination. The following procedure was used to obtain the aqueous solubility results summarized in Example 8. Step 1. Determination of optimal UV/vis wavelengths and generation of standard curves for a compound of interest: • (1) For eight standard calibration curves (one plate), prepare 34 mL of 50:50 (v:v) universal buffer:acetonitrile in a 50 mL tube. • (2) Using a multichannel pipet, dispense (in μL) the buffer:acetonitrile in a deep well plate as follows:
• (6) Cover plate with lid and shake (200-300 rpm) at room temperature for 20 minutes. • (7) Mix all wells by pipetting up and down 10 times. • (8) Transfer 120 μL from each well to a UV transparent plate. Cover and shake for 3-5 minutes. Remove any bubbles in the wells using a pipet. • (9) Read from 220 nm to 500 nm at 10 nm increments on a spectrophotometer (e.g., SpectraMax®).
Step 2. Compound Solubility Testing Procedures Using the Millipore™ Multiscreen® Solubility Filter Plate.
Universal Aqueous Buffer: • (a) To prepare 500 mL of universal buffer, add the following: 250 mL Nanopure water; 1.36 mL (45 mM) ethanolamine; 3.08 g (45 mM) potassium dihydrogen phosphate; 2.21 g (45 mM) potassium acetate; thoroughly mix. • (b) Adjust pH to 7.4 with HCl and q.s. to 500 mL with 0.15 M KCl. • (c) Filter to remove particulates and reduce bacterial growth. • (d) Store at 4° C. in the dark.
Solubility Protocol: • (a) Add 285 μL of Universal Aqueous Buffer to desired wells of the Millipore™ Multiscreen® Solubility filter plate. • (b) Add 15 μL of 10 mM compound in DMSO to the appropriate wells. Add 15 μL of 100% DMSO only to 6 wells of the filter plate for blanks. • (c) Using a multichannel pipet, mix wells by pipetting up and down 10 times. Be careful not to touch the filters in the plate with the tips. • (d) Cover and gently shake (200-300 rpm) filter plate for 90 minutes at room temperature. • (e) Vacuum filter the aqueous solution from the Multiscreen® solubility filter plate into a polypropylene V-bottom plate. • (f) Transfer 60 μL of filtrate to a UV transparent plate (Greiner® UV-Star Analysis Plate). • (g) Add 60 μL of acetonitrile to each well and mix by pipetting up and down 10 times. • (h) Cover and gently shake for 3-5 minutes. Remove any bubbles with a pipet. • (i) Measure the absorbance of each well in the plate on the spectrophotometer (UV/vis) at the desired wavelength. For compounds in a plate with different absorbance peaks, set the spectrophotometer to read a spectrum (e.g., from 220 nm to 460 nm). • (j) Identify concentration using measured absorbance for each compound and the predetermined standard curve (see Step 1).

RAW264.7 macrophages = test: Cell viability, WST-1 reagent; format: cell-based, mouse; settings: Mus musculus, RAW264.7 (20 ng/ml IFNγ)
Method in brief: as §3

## CC1(C)CC[C@]2(C(=O)NCC(F)(F)F)CC[C@]3(C)[C@H](C(=O)C[C@@H]4[C@@]5(C)C=C(C#N)C(=O)C(C)(C)[C@@H]5CC[C@]43C)[C@@H]2C1 [Compound 63102, (4aS,6aR,6bR,8aR,12aR,12bR,14aR,14bS)-11-cyano-2,2,6a,6b,9,9,12a-heptamethyl-10,14-dioxo-N-(2,2,2-trifluoroethyl)-1,2,3,4,4a,5,6,6a,6b,7,8,8a,9,10,12a,12b,13,14,14a,14b-icosahydropicene-4a-carboxamide]
Ferritin heavy chain
  Ferritin heavy chain mRNA induction: concentration needed compared with unsaturated counterpart (402, 404): higher concentrations
[1]
  TrxR1 mRNA induction: concentration needed compared with unsaturated counterpart (402, 404): higher concentrations
[2]
  IC50: ~45 nM
[3]
  solubility at 90 min: 0.06 µM (≈ 0.0345 µg/mL)
RAW264.7 macrophages
  IC50: > 200 nM
